We go through 19 compounds from patent publication US20190152962A1, “CYCLOPROPYL DERIVATIVES AS ROR-GAMMA MODULATORS” (CADILA HEALTHCARE LIMITED, priority 2016, published 2019).

The test system of experiment [1] is secreted IL-17 in peripheral blood mononuclear cells (PBMCs). The experiment is described as follows: Human IL-17 inhibition assay. It counts as cell-based. To be noted: PBMC, anti-CD3/anti-CD28, 72 h, read-out: IL17 IC50. Here is the method: Peripheral blood mononuclear cells (PBMCs) were isolated from healthy volunteers and subjected to T cell polarization assay. Two million PBMCs were placed on anti-CD3 (Biolegend, US) coated 96-well plates and 1 μg/mL of anti-CD28 (Biolegend, US) was added along with RORγt inhibitors or the vehicle control and incubated at 37° C. and 5% CO2 for 72 h. At the end of incubation time, the supernatant was collected and analyzed for secreted IL-17 using sandwich enzyme immunoassay (Mabtech AB, Sweden). The results were analyzed using Graphpad Prism and the half-maximal inhibitory concentrations (IC50) of the test compounds were derived (Table 4).

Experiment [2] concerns the target T1, full length human RORγt (Homo sapiens, UniProt P51449).
T1 construct: full length human RORγt together in COS-7 cells; expressed in transfected cells; host or cells: COS-7
T1 sequence (P51449 1-497 isoform P51449-2): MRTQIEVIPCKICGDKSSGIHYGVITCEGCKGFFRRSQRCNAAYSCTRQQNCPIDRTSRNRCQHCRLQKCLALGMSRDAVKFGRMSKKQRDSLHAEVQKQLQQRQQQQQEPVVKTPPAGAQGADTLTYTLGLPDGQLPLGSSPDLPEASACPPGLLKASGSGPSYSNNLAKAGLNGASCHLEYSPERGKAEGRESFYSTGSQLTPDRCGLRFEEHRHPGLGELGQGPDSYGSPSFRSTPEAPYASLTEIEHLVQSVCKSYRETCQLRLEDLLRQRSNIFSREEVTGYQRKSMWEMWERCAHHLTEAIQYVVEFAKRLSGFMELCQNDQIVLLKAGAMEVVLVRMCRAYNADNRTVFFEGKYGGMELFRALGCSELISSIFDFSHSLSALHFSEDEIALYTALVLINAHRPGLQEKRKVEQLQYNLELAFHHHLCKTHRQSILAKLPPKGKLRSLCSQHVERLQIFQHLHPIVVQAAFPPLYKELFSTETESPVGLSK
The experiment can be described thus: 5×RORE based luciferase assay. To be noted: COS-7 cells transfected with 5×RORE-Luc and hRORγt, 18-20 h treatment. It counts as cell-based. Here is the method: Human RORγt (hRORγt) inhibitors were screened in RORE (RORγt Response Element) based Luciferase assay by transient transfection of 5×RORE (5 tandem repeats of RORγt Response Element) and full length human RORγt together in COS-7 cells. COS-7 cells were maintained as monolayer in complete DMEM (High Glucose) medium in presence of 2 mM Glutamin and 1× Sodium Pyruvate. Day before transfection, 15000 cells were seeded in 96 well cell culture plate in 100 μl antibiotic free medium and incubated at 37° C. in 5% CO2 containing humidified chamber O/N. Prior to transfection, cells were fed with fresh complete growth medium and incubated until the addition of transfection complex. Transfection complex for the required numbers of wells were prepared from pGL2-promoter-5×RORE-Luc plasmid, pcDNA3.1 (+)-hRORγt expression plasmid, pβ-GAL plasmid (transfection control), and Lipofectamine 3000 (Invitrogen). 50 μl of transfection complex were added in 100 μl of complete medium to respective wells, mixed gently and plate was incubated for 5-6 h at 37° C. in 5% CO2 containing humidified chamber. After 5 h of transfection, content of the wells were aspirated and cells were treated with increasing concentration of RORγt inverse agonist in medium devoid of serum with a final DMSO concentration of 0.2% for 18-20 h at 37° C. in 5% CO2 containing humidified chamber. Next day, cells were lysed and the lysates were assayed for luciferase and β-GAL activity using Promega's luciferase assay system and an in-house made β-GAL assay buffer respectively. Luciferase signals were normalized with β-GAL and % activity was determined with respect to that of 10 nM control ligand.
IC50 of selected compounds were then determined by nonlinear regression analysis of % activity, plotted against compound concentration (Table 4).

A word on the IC50: it is the concentration that inhibits the measured activity by half.

With `CCS(=O)(=O)c1ccc(CC(=O)Nc2cc(Cl)c(C3(c4noc(-c5ccc(F)cc5)n4)CC3)c(Cl)c2)cc1` [Example 1, N-(3,5-dichloro-4-(1-(5-(4-fluorophenyl)-1,2,4-oxadiazol-3-yl)cyclopropyl)phenyl)-2-(4-(ethylsulfonyl)phenyl)acetamide], the IC50 in experiment [1] stood at 6.6 nM.
Take `CCS(=O)(=O)c1ccc(CC(=O)Nc2cc(Cl)c(C3(c4noc(-c5ccccc5)n4)CC3)c(Cl)c2)cc1` [Example 2, N-(3,5-dichloro-4-(1-(5-phenyl-1,2,4-oxadiazol-3-yl)cyclopropyl)phenyl)-2-(4-(ethylsulfonyl)phenyl)acetamide]: the IC50 stood at 7 nM in experiment [2] and 25 nM in experiment [1].
Taken in the same sequence, the figures for `CCS(=O)(=O)c1ccc(CC(=O)Nc2cc(Cl)c(C3(c4noc(-c5ccc(C(F)(F)F)cc5)n4)CC3)c(Cl)c2)cc1` [Example 3, N-(3,5-dichloro-4-(1-(5-(4-(trifluoromethyl)phenyl)-1,2,4-oxadiazol-3-yl)cyclopropyl)phenyl)-2-(4-(ethylsulfonyl)phenyl)acetamide] were 8.5 nM and 38.3 nM.
Taken in the same sequence, the figures for `CCS(=O)(=O)c1ccc(CC(=O)Nc2cc(Cl)c(C3(c4noc(-c5ccc(C)cc5)n4)CC3)c(Cl)c2)cc1` [Example 4, N-(3,5-dichloro-4-(1-(5-(p-tolyl)-1,2,4-oxadiazol-3-yl)cyclopropyl)phenyl)-2-(4-(ethylsulfonyl)phenyl)acetamide] were 1.46 nM and 15 nM.
Taken in the same sequence, the figures for `CCS(=O)(=O)c1ccc(CC(=O)Nc2cc(Cl)c(C3(c4noc(-c5ccc(F)c(F)c5)n4)CC3)c(Cl)c2)cc1` [Example 5, N-(3,5-dichloro-4-(1-(5-(3,4-difluorophenyl)-1,2,4-oxadiazol-3-yl)cyclopropyl)phenyl)-2-(4-(ethylsulfonyl)phenyl)acetamide] were 5.6 nM and 17 nM.
With `CCS(=O)(=O)c1ccc(CC(=O)Nc2cc(Cl)c(C3(c4noc(-c5cccc(F)c5)n4)CC3)c(Cl)c2)cc1` [Example 6, N-(3,5-dichloro-4-(1-(5-(3-fluorophenyl)-1,2,4-oxadiazol-3-yl)cyclopropyl)phenyl)-2-(4-(ethylsulfonyl)phenyl)acetamide], the half-inhibitory concentration (IC50) in experiment [2] was determined as 3.4 nM; in experiment [1], 35 nM.
For `CCS(=O)(=O)c1ccc(CC(=O)Nc2cc(Cl)c(C3(c4noc(-c5ccc(F)cc5F)n4)CC3)c(Cl)c2)cc1` [Example 7, N-(3,5-dichloro-4-(1-(5-(2,4-difluorophenyl)-1,2,4-oxadiazol-3-yl)cyclopropyl)phenyl)-2-(4-(ethylsulfonyl)phenyl)acetamide] the same measures were 8.7 nM and 10.4 nM.
For `CCS(=O)(=O)c1ccc(CC(=O)Nc2cc(Cl)c(C3(c4noc(-c5c(F)cc(F)cc5F)n4)CC3)c(Cl)c2)cc1` [Example 8, N-(3,5-dichloro-4-(1-(5-(2,4,6-trifluorophenyl)-1,2,4-oxadiazol-3-yl)cyclopropyl)phenyl)-2-(4-(ethylsulfonyl)phenyl)acetamide] the same measures were 11 nM and 2.7 nM.
Taken in the same sequence, the figures for `CCS(=O)(=O)c1ccc(CC(=O)Nc2cc(Cl)c(C3(c4noc(-c5ccc(F)cc5Cl)n4)CC3)c(Cl)c2)cc1` [Example 9, N-(3,5-dichloro-4-(1-(5-(2-chloro-4-fluorophenyl)-1,2,4-oxadiazol-3-yl)cyclopropyl)phenyl)-2-(4-(ethylsulfonyl)phenyl)acetamide] were 8.9 nM and 9.2 nM.
As to `CCS(=O)(=O)c1ccc(CC(=O)Nc2cc(Cl)c(C3(c4noc(-c5ccc(F)c(Cl)c5)n4)CC3)c(Cl)c2)cc1` [Example 10, N-(3,5-dichloro-4-(1-(5-(3-chloro-4-fluorophenyl)-1,2,4-oxadiazol-3-yl)cyclopropyl)phenyl)-2-(4-(ethylsulfonyl)phenyl)acetamide], the 50% inhibitory concentration (IC50) in experiment [2] came out at 6.8 nM; in experiment [1], 9.4 nM.
On to `CCS(=O)(=O)c1ccc(CC(=O)Nc2cc(Cl)c(C3(c4noc(-c5ccc(Cl)c(Cl)c5)n4)CC3)c(Cl)c2)cc1` [Example 11, N-(3,5-dichloro-4-(1-(5-(3,4-dichlorophenyl)-1,2,4-oxadiazol-3-yl)cyclopropyl)phenyl)-2-(4-(ethylsulfonyl)phenyl)acetamide], for which the IC50 in experiment [2] stood at 15.9 nM; in experiment [1] it was 14.7 nM.
Taken in the same sequence, the figures for `CCS(=O)(=O)c1ccc(CC(=O)Nc2cc(Cl)c(C3(c4noc(-c5ccc(Cl)cc5Cl)n4)CC3)c(Cl)c2)cc1` [Example 12, N-(3,5-dichloro-4-(1-(5-(2,4-dichlorophenyl)-1,2,4-oxadiazol-3-yl)cyclopropyl)phenyl)-2-(4-(ethylsulfonyl)phenyl)acetamide] were 5.9 nM and 10.6 nM.
For `CCS(=O)(=O)c1ccc(CC(=O)Nc2cc(Cl)c(C3(c4noc(-c5ccc(Cl)cc5)n4)CC3)c(Cl)c2)cc1` [Example 13, N-(3,5-dichloro-4-(1-(5-(4-chlorophenyl)-1,2,4-oxadiazol-3-yl)cyclopropyl)phenyl)-2-(4-(ethylsulfonyl)phenyl)acetamide] the same measures were 8.9 nM and 27.2 nM.
Taken in the same sequence, the figures for `CCS(=O)(=O)c1ccc(CC(=O)Nc2cc(Cl)c(C3(c4noc(-c5ccc(C#N)cc5)n4)CC3)c(Cl)c2)cc1` [Example 14, N-(3,5-dichloro-4-(1-(5-(4-cyanophenyl)-1,2,4-oxadiazol-3-yl)cyclopropyl)phenyl)-2-(4-(ethylsulfonyl)phenyl)acetamide] were 1.3 nM and 9.5 nM.
With `CCS(=O)(=O)c1ccc(CC(=O)Nc2cc(Cl)c(C3(c4noc(-c5ccc(OC)cc5F)n4)CC3)c(Cl)c2)cc1` [Example 15, N-(3,5-dichloro-4-(1-(5-(2-fluoro-4-methoxyphenyl)-1,2,4-oxadiazol-3-yl)cyclopropyl)phenyl)-2-(4-(ethylsulfonyl)phenyl)acetamide], the concentration for half-maximal inhibition (IC50) in experiment [2] came to 5.7 nM; in experiment [1] it was 27 nM.
Taken in the same sequence, the figures for `CCS(=O)(=O)c1ccc(CC(=O)Nc2cc(Cl)c(C3(c4noc(-c5cccs5)n4)CC3)c(Cl)c2)cc1` [Example 16, N-(3,5-dichloro-4-(1-(5-(thiophen-2-yl)-1,2,4-oxadiazol-3-yl)cyclopropyl)phenyl)-2-(4-(ethylsulfonyl)phenyl)acetamide] were 0.9 nM and 42 nM.
Taken in the same sequence, the figures for `CCS(=O)(=O)c1ccc(CC(=O)Nc2cc(Cl)c(C3(c4noc(-c5ccc(Cl)s5)n4)CC3)c(Cl)c2)cc1` [Example 17, N-(3,5-dichloro-4-(1-(5-(5-chlorothiophen-2-yl)-1,2,4-oxadiazol-3-yl)cyclopropyl)phenyl)-2-(4-(ethylsulfonyl)phenyl)acetamide] were 1.9 nM and 6 nM.
For `CCS(=O)(=O)c1ccc(CC(=O)Nc2cc(Cl)c(C3(c4noc(-c5ccc(C)s5)n4)CC3)c(Cl)c2)cc1` [Example 18, N-(3,5-dichloro-4-(1-(5-(5-methylthiophen-2-yl)-1,2,4-oxadiazol-3-yl)cyclopropyl)phenyl)-2-(4-(ethylsulfonyl)phenyl)acetamide] the same measures were 3.9 nM and 23.7 nM.
As to `CCS(=O)(=O)c1ccc(CC(=O)Nc2cc(Cl)c(C3(c4noc(-c5cccnc5)n4)CC3)c(Cl)c2)cc1` [Example 19, N-(3,5-dichloro-4-(1-(5-(pyridin-3-yl)-1,2,4-oxadiazol-3-yl)cyclopropyl)phenyl)-2-(4-(ethylsulfonyl)phenyl)acetamide], the IC50 was determined as 1.58 nM in experiment [2] and 27 nM in experiment [1].
